The text below walks through data of patent US8815592B2, “Methods and compositions related to dopaminergic neuronal cells” (Research Development Foundation, priority 2010, dated 2014).

Structures can show the parent of a compound that is named as a salt.

The subject of series [1] is Engineered neural tissues (ENTs). As to the kind of experiment: Neurotoxicology testing platform, electrical activity of engineered neural tissues. It counts as cell-based, mouse. As to conditions: ENTs (FIG. 13). The method, then:
Engineered neural tissues (ENTs) (a similar scheme could be applied to dopaminergic neurons provided according to certain aspects of the present invention) can be used for establishment of a neurotoxicology testing platform (FIG. 12). […] Mouse ENTs differentiated for 21 days were exposed to putative neurotoxic for 24 hours and spontaneous electrical activity was measured for the neurotoxicity testing (FIG. 14). Electrophysiological characterizations of ENTs include characterization of spontaneous activity such as spike frequency, spike amplitude, burst frequency (number of bursts per second), or number of spikes per burst, or characterization of evoked filed potentials such as amplitude of responses, paired-pulse inhibition, or input/output curve. The electrophysiological characterization of ENTs can be carried out by a multi-electrode array (FIG. 16).

Series [2] addresses T1, dopaminergic transporter DAT (Mus musculus, UniProt Q61327).
T1 construct: After 16 days of differentiations, cells were incubated with [^3H]; Win35, 428 for 1 hour; endogenous in cells; host or cells: dopaminergic neurons differentiated from mouse embryonic stem cells (CGR8 line)
As to the kind of experiment: [3H] Win 35,428 binding on DAT receptor of ES-derived dopaminergic neurons, with and without GBR 12909. As to conditions: cells incubated with 10 μm GBR 12909 hydrochloride; 5 nM ligand; 6 well plates.
Experimental: Cells were incubated on binding buffer containing 5 nM of the ligand at different time (30 to 60 minutes), with and without 10 μm of GBR 12909 hydrochloride. […] Radioactivity measured by liquid scintillation counter (WALLAC).
Win 35,428 binding to DAT receptor and DA-neurons in 96-well plate, cells were plated at the density of 60 cells/well.
After 16 days of differentiations, cells were incubated with [^3H] Win35, 428 for 1 hour and then washed by binding buffer for 1 minute, following by direct counting using liquid scintillation counter (WALLAC).
In detail, the binding assay was performed at 4° C. in phosphate-buffered saline (PBS) (Invitrogen/Gibco) containing 0.32 M sucrose with Ca^2+ and Mg^2+. Cells in each well were washed one time with 0.5 ml of phosphatebuffered. Then incubated at various time (30 to 60 min) with various amounts (5 to 10 nM) of [^3H] Win 35,428. The non specific binding was determined in the presence or not of 10 μM of GBR-12909 hydrochloride. The incubation was stopped by rinsing the cells three times with ice-cold buffer to eliminate non-linked [^3H] Win 35,428 and removal of cells. Cells were detached by a rake and transferred into a 96 well plate. Radioactivity was measured by a liquid scintillation counter (WALLAC).

T1 sequence (Q61327 whole entry): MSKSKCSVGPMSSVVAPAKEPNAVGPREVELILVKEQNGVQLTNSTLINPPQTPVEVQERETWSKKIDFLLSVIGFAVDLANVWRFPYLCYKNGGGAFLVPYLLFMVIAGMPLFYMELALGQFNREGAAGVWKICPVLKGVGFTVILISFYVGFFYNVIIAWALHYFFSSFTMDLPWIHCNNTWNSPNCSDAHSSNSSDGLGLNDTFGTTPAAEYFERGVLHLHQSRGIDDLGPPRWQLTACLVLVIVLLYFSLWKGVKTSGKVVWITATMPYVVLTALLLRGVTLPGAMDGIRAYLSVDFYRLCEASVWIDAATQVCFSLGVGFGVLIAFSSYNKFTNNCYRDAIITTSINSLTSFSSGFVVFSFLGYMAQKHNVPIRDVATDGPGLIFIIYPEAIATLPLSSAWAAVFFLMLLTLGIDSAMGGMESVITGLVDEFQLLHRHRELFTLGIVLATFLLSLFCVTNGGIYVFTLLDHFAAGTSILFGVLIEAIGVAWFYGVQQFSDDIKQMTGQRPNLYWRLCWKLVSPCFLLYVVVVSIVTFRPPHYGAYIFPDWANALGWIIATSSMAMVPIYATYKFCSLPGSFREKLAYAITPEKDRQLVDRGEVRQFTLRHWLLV

Consider `COc1cc2c(c(OC)c1OC)-c1ccc(OC)c(=O)cc1[C@@H](NC(C)=O)CC2` [colchicine], for which the epileptogenic activity result in series [1] is reported as “demonstrated”. Consider `Fc1ccc(C(OCCN2CCN(CCCc3ccccc3)CC2)c2ccc(F)cc2)cc1` [GBR 12909 hydrochloride], for which, in series [2], the “non-specific binding as share of the total binding of [3H] Win 35,428” value amounted to 50%.
